Laboratory results taken from article PMC7855594 (Cell chemical biology, 2020).
One block for each compound: values may come before it.

Key:
[1] = molecular target: T1, USP7 (Homo sapiens, UniProt Q93009); format: biochemical
[2] = molecular target: T1, USP7; format: biochemical; remark: listed apart in the source
[3] = molecular target: T1, USP7; test: purified enzyme biochemical assay; details: cited from earlier work

T1 sequence (Q93009 whole entry): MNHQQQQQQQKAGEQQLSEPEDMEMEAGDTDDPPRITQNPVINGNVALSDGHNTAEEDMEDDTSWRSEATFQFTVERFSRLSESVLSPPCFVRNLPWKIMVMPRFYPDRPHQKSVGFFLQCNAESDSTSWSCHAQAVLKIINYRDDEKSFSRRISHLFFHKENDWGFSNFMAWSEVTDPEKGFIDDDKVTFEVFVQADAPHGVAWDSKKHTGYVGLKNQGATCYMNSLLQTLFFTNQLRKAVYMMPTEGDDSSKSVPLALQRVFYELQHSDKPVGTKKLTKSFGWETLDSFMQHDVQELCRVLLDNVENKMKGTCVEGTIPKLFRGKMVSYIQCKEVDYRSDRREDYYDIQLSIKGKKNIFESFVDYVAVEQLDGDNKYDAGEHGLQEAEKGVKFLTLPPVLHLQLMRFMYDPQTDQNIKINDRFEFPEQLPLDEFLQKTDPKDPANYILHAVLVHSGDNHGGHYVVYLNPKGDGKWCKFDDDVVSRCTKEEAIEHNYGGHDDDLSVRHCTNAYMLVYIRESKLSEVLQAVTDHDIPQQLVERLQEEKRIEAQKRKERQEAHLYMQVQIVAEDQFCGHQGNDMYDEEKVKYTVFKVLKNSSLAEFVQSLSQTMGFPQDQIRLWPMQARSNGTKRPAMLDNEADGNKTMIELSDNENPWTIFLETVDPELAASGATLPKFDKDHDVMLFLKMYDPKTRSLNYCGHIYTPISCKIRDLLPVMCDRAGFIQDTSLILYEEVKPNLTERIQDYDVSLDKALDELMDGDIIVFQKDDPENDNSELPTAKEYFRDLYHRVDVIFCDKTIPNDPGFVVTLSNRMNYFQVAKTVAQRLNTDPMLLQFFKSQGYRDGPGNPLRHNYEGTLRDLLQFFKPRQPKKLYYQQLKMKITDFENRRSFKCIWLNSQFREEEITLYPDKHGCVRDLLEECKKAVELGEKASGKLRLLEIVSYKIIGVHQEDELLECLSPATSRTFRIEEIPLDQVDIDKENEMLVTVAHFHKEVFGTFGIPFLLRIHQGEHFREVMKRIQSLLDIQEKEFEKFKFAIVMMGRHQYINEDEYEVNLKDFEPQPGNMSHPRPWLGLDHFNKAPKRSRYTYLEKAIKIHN

% inhibition at 1 μM [1]: 100
SMILES: CN1CCN(CCC(=O)Nc2ccc3c(=O)n(CC4(O)CCN(C(=O)[C@@H](CCCNC(=O)c5ccc6c(Cl)c7c(nc6c5)CCCC7)Cc5ccccc5)CC4)cnc3c2)CC1 [XL177A]

% inhibition at 10 μM [2]: 100
SMILES: C[C@H](CC(=O)N1CCC(O)(Cn2cnc3cc(NC(=O)CCN4CCN(C)CC4)ccc3c2=O)CC1)c1ccccc1 [XL188]

SMILES: C[C@@H](CC(=O)N1CCC(O)(Cn2cnc3cc(NC(=O)CCN4CCN(C)CC4)ccc3c2=O)CC1)c1ccccc1 [XL203C]
IC50 [3]: 7 µM
